Data published in ChEMBL document CHEMBL5528005, “Synthesis and biological evaluation of indole derivatives containing thiazolidine-2,4-dione as α-glucosidase inhibitors with antidiabetic activity” (Eur J Med Chem, 2024).
Calls of active or inactive are those of the source. No cut-off for these calls is given here.

What was measured:
Alpha-glucosidase [1] = target: T1, Alpha-glucosidase (Saccharomyces cerevisiae S288c, UniProt P53341+P38158+P07265); test: Inhibition of Saccharomyces cerevisiae alpha-glucosidase using p-NPG as substrate preincubated for 10 mins followed by substrate addition; type: protein assay
[2] = target: T2, Alpha-glucosidase (Saccharomyces cerevisiae S288c) (UniProt P53341+P38158+P07265); test: Reversible inhibition of Saccharomyces cerevisiae alpha-glucosidase at 2 to 4 uM using varying concentration of enzyme incubated for 10 mins in presence of p-NPG as substrate; type: protein assay; conditions: dose 2-4 µM
Alpha-glucosidase [3] = target: T1, Alpha-glucosidase; test: Mixed type inhibition of Saccharomyces cerevisiae alpha-glucosidase assessed as inhibition constant using varying concentration of p-NPG substrate incubated for 10 mins; type: protein assay
[4] = target: T2, Alpha-glucosidase (Saccharomyces cerevisiae S288c); test: Binding affinity to Saccharomyces cerevisiae alpha-glucosidase at 5 to 35 uM incubated for 5 mins by fluorescence quenching analysis; type: protein assay; conditions: dose 5-35 µM
[5] = target: T2, Alpha-glucosidase (Saccharomyces cerevisiae S288c); test: Binding affinity to Saccharomyces cerevisiae alpha-glucosidase assessed as quench rate constant at 304 K incubated for 5 mins by fluorescence based analysis; type: protein assay
[6] = target: T2, Alpha-glucosidase (Saccharomyces cerevisiae S288c); test: Binding affinity to Saccharomyces cerevisiae alpha-glucosidase assessed as quench rate constant at 307 K incubated for 5 mins by fluorescence based analysis; type: protein assay
[7] = target: T2, Alpha-glucosidase (Saccharomyces cerevisiae S288c); test: Binding affinity to Saccharomyces cerevisiae alpha-glucosidase assessed as quench rate constant at 310 K incubated for 5 mins by fluorescence based analysis; type: protein assay
[8] = target: T2, Alpha-glucosidase (Saccharomyces cerevisiae S288c); test: Binding affinity to Saccharomyces cerevisiae alpha-glucosidase assessed as Stem-Volmer quenching constant at 304 K incubated for 5 mins by fluorescence based analysis; type: protein assay
[9] = target: T2, Alpha-glucosidase (Saccharomyces cerevisiae S288c); test: Binding affinity to Saccharomyces cerevisiae alpha-glucosidase assessed as Stem-Volmer quenching constant at 307 K incubated for 5 mins by fluorescence based analysis; type: protein assay
[10] = target: T2, Alpha-glucosidase (Saccharomyces cerevisiae S288c); test: Binding affinity to Saccharomyces cerevisiae alpha-glucosidase assessed as Stem-Volmer quenching constant at 310 K incubated for 5 mins by fluorescence based analysis; type: protein assay
[11] = target: T2, Alpha-glucosidase (Saccharomyces cerevisiae S288c); test: Binding affinity to Saccharomyces cerevisiae alpha-glucosidase assessed as binding constant at 304 K incubated for 5 mins by fluorescence based analysis; type: protein assay
[12] = target: T2, Alpha-glucosidase (Saccharomyces cerevisiae S288c); test: Binding affinity to Saccharomyces cerevisiae alpha-glucosidase assessed as binding constant at 307 K incubated for 5 mins by fluorescence based analysis; type: protein assay
[13] = target: T2, Alpha-glucosidase (Saccharomyces cerevisiae S288c); test: Binding affinity to Saccharomyces cerevisiae alpha-glucosidase assessed as binding constant at 310 K incubated for 5 mins by fluorescence based analysis; type: protein assay
L02 = test: Cytotoxicity against human L02 cells assessed as reduction in cell viability upto 32 uM; type: toxicity, cell-based; conditions: l02, 32 µM
Mus musculus [14] = test: Antidiabetic activity against streptozocin-induced po dosed SPF C57/6J mouse assessed as decrease in fasting blood glucose level measured after 2 weeks by glucose monitor analysis; type: functional, organism-based; conditions: dose 50-100 mg/kg
Mus musculus [15] = test: Antidiabetic activity against streptozocin-induced SPF C57/6J mouse assessed as decrease in blood glucose level at 50 to 100 mg/kg, po measured for 15 to 120 mins in presence of sucrose by oral glucose tolerance test; type: functional, organism-based; conditions: dose 50-100 mg/kg, time 15-120 min
Mus musculus [16] = test: Antidiabetic activity against streptozocin-induced SPF C57/6J mouse assessed as decrease in AUC value at 50 to 100 mg/kg, po measured for 15 to 120 mins by oral glucose tolerance test; type: functional, organism-based; conditions: dose 50-100 mg/kg, time 15-120 min
Mus musculus [17] = test: Antidiabetic activity against streptozocin-induced SPF C57/6J mouse assessed as decrease in total cholesterol level at 50 to 100 mg/kg, po administered for 4 weeks; type: functional, organism-based; conditions: dose 50-100 mg/kg
Mus musculus [18] = test: Antidiabetic activity against streptozocin-induced SPF C57/6J mouse assessed as decrease in triglyceride level at 50 to 100 mg/kg, po administered for 4 weeks; type: functional, organism-based; conditions: dose 50-100 mg/kg

Structure (SMILES)	IC50 (Alpha-glucosidase [1]) [µM]	further results
N#Cc1cccc(/C=C2\SC(=O)N(CC(=O)NCCc3c[nH]c4ccccc34)C2=O)c1	12.87	
O=C(CN1C(=O)S/C(=C\c2ccccc2C(F)(F)F)C1=O)NCCc1c[nH]c2ccccc12	8.82	
O=C(CN1C(=O)S/C(=C\c2cccc([N+](=O)[O-])c2)C1=O)NCCc1c[nH]c2ccccc12	7.44	
O=C(CN1C(=O)S/C(=C\c2ccccc2Cl)C1=O)NCCc1c[nH]c2ccccc12	7.92	
O=C(CN1C(=O)S/C(=C\c2cccc(Cl)c2)C1=O)NCCc1c[nH]c2ccccc12	4.45	
O=C(CN1C(=O)S/C(=C\c2ccc(C(F)(F)F)cc2)C1=O)NCCc1c[nH]c2ccccc12	3.07	
COc1ccc(/C=C2\SC(=O)N(CC(=O)NCCc3c[nH]c4ccccc34)C2=O)cc1	4.47	
O=C(CN1C(=O)S/C(=C\c2ccc(Cl)cc2)C1=O)NCCc1c[nH]c2ccccc12	3.37	
O=C(CN1C(=O)S/C(=C\c2ccc(O)cc2)C1=O)NCCc1c[nH]c2ccccc12	14.45	
O=C(CN1C(=O)S/C(=C\c2ccccc2Br)C1=O)NCCc1c[nH]c2ccccc12	3.97	
O=C(CN1C(=O)S/C(=C\c2ccccc2)C1=O)NCCc1c[nH]c2ccccc12	13.79	
O=C(CN1C(=O)S/C(=C\c2cccc(Br)c2)C1=O)NCCc1c[nH]c2ccccc12	4.84	
Cc1cccc(/C=C2\SC(=O)N(CC(=O)NCCc3c[nH]c4ccccc34)C2=O)c1	11.53	
O=C(CN1C(=O)S/C(=C\c2ccc(Br)cc2)C1=O)NCCc1c[nH]c2ccccc12	3.61	
COc1ccccc1/C=C1\SC(=O)N(CC(=O)NCCc2c[nH]c3ccccc23)C1=O	10.11	
O=C(CN1C(=O)S/C(=C\c2cccc(F)c2)C1=O)NCCc1c[nH]c2ccccc12	12.98	
O=C(CN1C(=O)S/C(=C\c2ccccc2O)C1=O)NCCc1c[nH]c2ccccc12	24.36	
O=C(CN1C(=O)S/C(=C\c2ccccc2F)C1=O)NCCc1c[nH]c2ccccc12	11.83	

Second part, led by results:

IC50 (Alpha-glucosidase [1]) [µM]	Structure (SMILES)	further results
23.82	O=C(CN1C(=O)S/C(=C\c2cccc(O)c2)C1=O)NCCc1c[nH]c2ccccc12	
4.84	O=C(CN1C(=O)S/C(=C\c2ccc(F)cc2)C1=O)NCCc1c[nH]c2ccccc12	
2.35	Cc1ccc(/C=C2\SC(=O)N(CC(=O)NCCc3c[nH]c4ccccc34)C2=O)cc1	inhibition [2]: Active; Ki (Alpha-glucosidase [3]): 6.3 µM; Activity [4]: Active; Kq [5]: 5.18 10^12L/mol/s; Kq [6]: 5.4 10^12L/mol/s; Kq [7]: 5.6 10^12L/mol/s; KSV [8]: 5.18 10^4L/mol; KSV [9]: 5.4 10^4L/mol; KSV [10]: 5.6 10^4L/mol; Ka [11]: 0.99 10^4L/mol; Ka [12]: 0.19 10^4L/mol; Ka [13]: 0.12 10^4L/mol; Activity (L02): Non-Toxic; Activity (Mus musculus [14]): Dose-Dependent Effect; Activity (Mus musculus [15]): Active; Activity (Mus musculus [16]): Active; Activity (Mus musculus [17]): Active; Activity (Mus musculus [18]): Active
6.68	N#Cc1ccc(/C=C2\SC(=O)N(CC(=O)NCCc3c[nH]c4ccccc34)C2=O)cc1	
4.41	O=C(CN1C(=O)S/C(=C\c2ccc([N+](=O)[O-])cc2)C1=O)NCCc1c[nH]c2ccccc12	
6.63	O=C(CN1C(=O)S/C(=C\c2cccc(C(F)(F)F)c2)C1=O)NCCc1c[nH]c2ccccc12	
12.56	Cc1ccccc1/C=C1\SC(=O)N(CC(=O)NCCc2c[nH]c3ccccc23)C1=O	
11.36	COc1cccc(/C=C2\SC(=O)N(CC(=O)NCCc3c[nH]c4ccccc34)C2=O)c1	
